The target in this assay is D(3) dopamine receptor (Rattus norvegicus, UniProt P19020). Briefly: biochemical.

From ChEMBL document CHEMBL1126949 (J Med Chem, 1993) come the findings set out here.

Sequence of D(3) dopamine receptor (P19020 whole entry): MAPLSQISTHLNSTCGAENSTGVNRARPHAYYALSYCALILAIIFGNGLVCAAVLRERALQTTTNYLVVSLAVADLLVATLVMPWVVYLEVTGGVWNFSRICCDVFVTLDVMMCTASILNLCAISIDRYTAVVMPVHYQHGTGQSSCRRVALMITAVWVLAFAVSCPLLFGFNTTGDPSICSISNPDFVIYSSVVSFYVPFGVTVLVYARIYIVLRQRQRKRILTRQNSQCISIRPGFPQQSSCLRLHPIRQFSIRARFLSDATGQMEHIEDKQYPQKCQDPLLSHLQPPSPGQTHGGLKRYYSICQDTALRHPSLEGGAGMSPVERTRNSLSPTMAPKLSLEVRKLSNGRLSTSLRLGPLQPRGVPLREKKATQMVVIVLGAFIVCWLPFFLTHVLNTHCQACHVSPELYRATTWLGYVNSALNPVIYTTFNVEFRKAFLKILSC

As to `CCCN(CCC)C1CCc2cccc(O)c2C1` (stereo unspecified) [8-OH-DPAT], the Ki – broadly, the equilibrium dissociation constant of an inhibitor or competing ligand from its target – came to 248 nM.
